Source: patent US20250282723A1, “AMYLOID TARGETING AGENTS AND METHODS OF USING THE SAME” (The Regents of the University of California, priority 2021, published 2025)
Several values for one entry are separate records, joined by “and”; a condition that tells them apart may be missing. Identical values can stand only once.

Legend:
[1] = target: T1, aggregated Aβ (1-42) peptides (Homo sapiens, UniProt P05067); test: Estimation of binding constant (KD) to aggregated Aβ (1-42) peptides; details: aggregated Aβ(1-42) 5 μM, increasing concentration of probe, 5% DMSO in nanopure water
T1 construct: Synthetic Aβ (1-42) peptide was purchased from Biopeptide, Co LLC; purchased Biopeptide, Co LLC (San Diego, California); host or cells: chemical synthesis
T1 sequence (P05067 672-713): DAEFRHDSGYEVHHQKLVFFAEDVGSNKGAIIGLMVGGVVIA
Procedure: (§1) Preparation of aggregated Aβ (1-42) peptides. Synthetic Aβ (1-42) peptide was purchased from Biopeptide, Co LLC (San Diego, California). Aggregated Aβ (1-42) was prepared as previously described.^26 Briefly, Aβ (1-42) was dissolved in 100% 1,1,1,3,3,3,-hexafluoro-2-propanol (HFIP) to a concentration of 1 mM and put on a shaker at room temperature (RT) for 24 hours. The solution was then diluted in cold nanopure water (2:1 H2O: HFIP). Aliquoted fractions were lyophilized for 3 days before dissolving in nanopure water to a concentration of 100 μM. Aggregated Aβ solutions were incubated and shaken at 37° C. for 3 days before use. The formation of soluble aggregates (67% fibrils as a mixture with 13% oligomers and 20% monomer) was confirmed using a standard thioflavin T (ThT) assay and by Sodium Dodecyl Sulphate-Polyacrylamide Gel Electrophoresis (SDS-PAGE) gel analysis (FIG. 11 and FIG. 12).
Estimation of Binding Constant (KD) to aggregated Aβ (1-42) peptides. Aggregated Aβ(1-42) at a final concentration of 5 μM (based on the molecular weight of monomer) was mixed with increasing concentration of each probe in 5% DMSO in nanopure water. KD's were determined as previously described.^21
(§2) Synthetic Aβ (1-42) peptide was purchased from Biopeptide, Co LLC (San Diego, California). Aggregated Aβ (1-42) was prepared as previously described.^32 Briefly, monomeric Aβ (1-42) was dissolved in 100% 1,1,1,3,3,3,-hexafluoro-2-propanol (HFIP) to a final concentration of 1 mM and dissolved on a shaker at RT for 24 hours. This solution was then diluted with cold nanopure water (2:1 H2O:HFIP) and aliquoted into fractions. These samples were then lyophilized for 3 days before dissolving in nanopure water to a final concentration of 100 μM. AD solutions were aggregated by incubating and shaking at 37° C. for 3 days before use. The formation of soluble aggregates was confirmed using a standard Thioflavin T (ThT) assay and by SDS-PAGE gel analysis.^1
(§3) Aggregated Aβ(1-42) or αS at a final concentration of 5 μM (based on the molecular weight of the monomer) was mixed with an increasing concentration of each probe in 5% DMSO in nanopure water. Kd's were calculated as previously described.^34 The measurements for each probe were repeated in technical triplicates and the averages are shown with standard deviations. Kd's for probes 1-3 with aggregated Aβ(1-42) have been reported previously.^31

[2] = target: T1, aggregated Aβ (1-42) peptides; test: Fluorescence excitation/emission and fluorescence enhancement of probes bound versus unbound to aggregated Aβ (1-42) peptides; assay type: binding; details: probe 4 μM; for Em (λmax) (with Aβ) / Ex (λmax) (with Aβ): aggregated Aβ (1-42) 5 μM; for Fold Increase with Aβ: fluorescence intensity with aggregated Aβ (1-42) 5 μM vs probe alone, at λmax of the amyloid-bound state
Procedure: as §1
(§4) Estimation of fluorescence enhancement of probes when bound versus unbound to aggregated Aβ (1-42) peptides. Aggregated Aβ (1-42) at a final concentration of 5 μM (based on the molecular weight of monomer) was mixed with each fluorescent probe at a final concentration of 4 μM in 5% DMSO in nanopure water. The solution (80 μL) was transferred to a black opaque 96 well plate and the fluorescence was read using a microplate reader. For all probes, the relative fluorescence enhancement of the bound versus unbound state was estimated by comparing the intensity at λmax of the amyloid-bound state.
as §2
(§5) Aggregated αS or Aβ(1-42) at a final concentration of 5 μM (based on the molecular weight of monomer) was mixed with each fluorescent probe at a final concentration of 4 μM in 5% DMSO in nanopure water. The solution (80 μL total volume) was transferred to a black opaque 96 well plate and the fluorescence excitation and emission were read using a microplate reader. For emission fluorescence enhancement, the relative fluorescence enhancement of the bound versus unbound state was estimated by comparing the fluorescence intensity at λmax of the amyloid-bound state.

[3] = Quantum yield measurements; assay type: physicochemical; details: 5% DMSO/H2O, reference standard Coumarin 30
Procedure: Quantum Yield Measurements. To determine the quantum yield (QY) of compounds ARCAM, 1-5, a procedure that was similar to a previously reported protocol for estimating the QY for Thioflavin T^24 was used. Briefly, the absorbance spectrum of each probe (in 5% Dimethyl Sulfoxide (DMSO)/water (H2O)), in addition to the absorbance spectrum for the reference standard (Coumarin 30, QY=0.67)^27 was measured. The wavelength at which the two normalized absorbance curves intersected was used as the excitation wavelength. A serial dilution of each probe and the standard was made with absorbance values at the excitation wavelength in the range of 0 to 0.1 absorbance units. At each concentration, the emission spectra for each probe and the standard were measured. Technical triplicates of these experiments were performed for all probes, and the averages were recorded. From these emission spectra, the area under the curve was calculated and plotted against the absorbance at each concentration (FIGS. 3-7). The data were fitted to Equation 1 to obtain estimates for QY: […]
where QY represents the quantum yield, A represents the absorbance, E represents the integrated fluorescence emission, η represents the refractive index of the solvent^28,29, and the ‘p’ and ‘r’ subscripts signify the probe or the reference compound, respectively.
Quantum Yield ((D) for each probe was measured as described previously.^31 Briefly, we measured the absorbance spectrum of each probe in 5% DMSO/H2O, as well as the absorbance spectrum for the reference standard (Coumarin 30, =0.67 in Acetonitrile). Both normalized absorbance curves were plotted, and the wavelength of intersection was used as the excitation wavelength. A serial dilution was made for each probe and the standard with absorbance values at the excitation wavelength varying between of 0 to 0.1 absorbance units. At each concentration, the emission spectra for each probe and the standard were measured. Each experiment was repeated in technical triplicates for all probes, and the averages were recorded. The integrated fluorescence emission was calculated and plotted against the absorbance at each concentration. The data were fitted to Equation Si to obtain estimates for Φ: […]
where Φ represents the quantum yield, A represents the absorbance, E represents the integrated fluorescence emission, η represents the refractive index of the solvent, and the ‘p’ and ‘r’ subscripts signify the probe or the reference compound, respectively.

[4] = Fluorescence excitation and emission spectra of free (unbound) probes in aqueous solution; assay type: physicochemical; details: for Em (λmax) (Free) / Ex (λmax) (Free): free probe in aqueous solution; for fluorescence intensity of the free probe in aqueous solution compared to ARCAM (1): free probes in aqueous solution, FIG. 2
Procedure: as §4, §5

[5] = in Acetonitrile; cited from earlier work
[6] = target: T2, aggregated αS (Homo sapiens, UniProt P37840); test: Estimation of binding constant (Kd) to aggregated αS; details: probes of FIG. 14; aggregated αS 5 μM, increasing concentration of probe, 5% DMSO in nanopure water
T2 construct: made in house; host or cells: E. coli BL21 (plasmid pET5α aSynWT)
Procedure: (§6) Expression and purification of recombinant α-synuclein was followed as reported previously.^32 Briefly, α-synuclein was purified from BL21 E. coli as described: A starter culture of transformed bacteria (pET5α aSynWT) (LB broth with ampicillin [final concentration: 100 μg/mL]) was incubated overnight. Following incubation, 25 mL of the started culture was added to a 500 mL mixture of LB broth and ampicillin. Protein expression was induced by addition of IPTG [0.119 g/500 mL] when an OD600 between 0.5-0.8 was achieved. After 4 h, flasks were centrifuged (5,000×g for 20 min) and the supernatant was removed. The pellets were then re-suspended in 20 mM Tris, 25 mM NaCl, 1 mM EDTA, pH 8.0, transferred into a flask, boiled for 1-2 minutes in a microwave, and boiled in a water bath (90° C.) for 30 minutes. Samples were then centrifuged (18,000×g for 30 min) and the supernatant was collected and filtered through a 0.2 μm filter. α-synuclein protein was further purified using 2×5 ml HiTrapQ HP anion exchange columns (GE, #17-1153-01) followed by Size Exclusion Column (Superdex 200, #28-9893-35). Pure α-synuclein determined by Coomassie and western blot were lyophilized and stored at −80° C. until use.
(§7) Aggregation of purified α-synuclein was followed as reported previously.^33 The lyophilized powder was dissolved to a final concentration of 100 μM in sodium phosphate buffer (50 mM, pH 7.4) with 0.1 mM EDTA and 0.02% sodium azide (w/v) and was aggregated at 37° C. with shaking at 500 rpm for 3 weeks. Fibrillization was confirmed by SDS-PAGE gel and standard ThT assay.
as §3

[7] = target: T2, aggregated αS; test: Fluorescence emission and fluorescence enhancement of probes bound versus unbound to aggregated αS; assay type: binding; details: probes of FIG. 14
Procedure: as §6, §7, §5

COCCOCCOCCNC(=O)C(C#N)=C(c1ccc2cc(N3CCCCC3)ccc2c1)C(F)(F)F (mixture of isomers) [Compound 3, (Z)-2-cyano-4,4,4-trifluoro-N-(2-(2-(2-methoxyethoxy)ethoxy)ethyl)-3-(6-(piperidin-1-yl)naphthalen-2-yl)but-2-enamide]
Kd [1]: 3.7 ± 1.1 µM
Em (λmax) (with Aβ) ([2]; 5% DMSO in nanopure water): 514 ± 6 nm
Ex (λmax) (with Aβ) ([2]; 5% DMSO in nanopure water): 410 ± 5 nm
Fold Increase with Aβ ([2]; 5% DMSO in nanopure water): 5.4 fold and 5.4 ± 0.9 fold
QY [3]: 0.0012 ± 0.0004
Em (λmax) (Free) [4]: 547 ± 5 nm
Ex (λmax) (Free) [4]: 419 ± 4 nm
fluorescence intensity of the free probe in aqueous solution compared to ARCAM (1) [4]: decreased in fluorescence intensity by two orders of magnitude

CCN(CC)c1ccc2cc(-c3nc4ccccc4n3C)c(=O)oc2c1 [Coumarin 30]
quantum yield of the reference standard [5]: 0.67

CCCC1CCCCN1c1ccc2cc(/C=C(\C#N)C(=O)NCCOCCOCCOC)ccc2c1 (stereo not drawn) [Probe 4, (E)-2-cyano-N-(2-(2-(2-methoxyethoxy)ethoxy)ethyl)-3-(6-(2-propylpiperidin-1-yl)naphthalen-2-yl)acrylamide]
Kd ([1]; probes of FIG. 14): 4 ± 2.7 µM
Kd [6]: 500 ± 100 nM
Emmax (with Aβ) ([2]; probes of FIG. 14, aggregated Aβ(1-42) 5 μM, 5% DMSO in nanopure water): 558 nm
FI with Aβ ([2]; probes of FIG. 14, fold increase of fluorescence, bound vs unbound, aggregated Aβ(1-42) 5 μM): 1.8 ± 0.2
Emmax (with αS) ([7]; aggregated αS 5 μM, probe 4 μM, 5% DMSO in nanopure water): 539 nm
FI with αS ([7]; fold increase of fluorescence, bound vs unbound, aggregated αS 5 μM, probe 4 μM): 5.2 ± 0.8
FI αS/Aβ ([7]; selectivity of fluorescence response to αS fibrils over Aβ fibrils): 2.9
Quantum Yield (Φ) ([3]; probes of FIG. 14): 0.0062
Emmax (Free) ([4]; probes of FIG. 14, free): 578 nm

COCCOCCOCCNC(=O)/C(C#N)=C(\C)c1ccc2cc(N3CCCCC3)ccc2c1 [Compound 2, (E)-2-cyano-N-(2-(2-(2-methoxyethoxy)ethoxy)ethyl)-3-(6-(piperidin-1-yl)naphthalen-2-yl)but-2-enamide]
Kd [1]: 5 ± 1.7 µM
Em (λmax) (with Aβ) ([2]; 5% DMSO in nanopure water): 547 ± 4 nm
Ex (λmax) (with Aβ) ([2]; 5% DMSO in nanopure water): 364 ± 6 nm
Fold Increase with Aβ ([2]; 5% DMSO in nanopure water): 3.5 fold and 3.5 ± 0.9 fold
QY [3]: 0.0016 ± 0.0005
Em (λmax) (Free) [4]: 601 ± 2 nm
Ex (λmax) (Free) [4]: 372 ± 14 nm
fluorescence intensity of the free probe in aqueous solution compared to ARCAM (1) [4]: decreased in fluorescence intensity by two orders of magnitude

Cc1ccc2c(c1)sc(-c1ccc(N(C)C)cc1)[n+]2C.[Cl-] [ThT, Thioflavin T, reference compound]
QY [3]: 0.0006
